Data taken from patent US11768205B2, “Methods and materials for identifying and treating cancers having elevated levels of phosphorylated ubiquitin” (Mayo Foundation for Medical Education and Research, priority 2017, dated 2023).

Tests used:
NIH-3T3 cells = test: Western blot of Ub conjugates after FGFb; format: cell-based, mouse
Protocol: FIG. 6. FGFR activation increases cellular Ub conjugates. (A to D). NIH-3T3 cells were serum starved for 48 hours and then treated with 20 ng/mL FGFb and harvested at different time course. Total Ub conjugates (A), K48-linked conjugates (B), and K63-linked conjugates (C) were determined by Western blot, and their intensities were quantitated and normalized to that of β-actin and then to time 0 in each group (D). Data were mean±SD of three independent experiments. (**: p<0.01, Student's t-test). (E to H). HEK293 cells were transfected with empty vector (Ctrl), FGFR2 wide type, or FGFR2 kinase dead mutant (KR). Total Ub conjugates (E), K48-linked conjugates (F), and K63-linked conjugates (G) were determined by Western blot, and their intensities were quantitated and normalized to that of β-actin and then to control in each group (H). Data were mean±SD of three independent experiments. (**: p<0.01, Student's t-test). (I to L). NIH-3T3 cells were serum starved for 48 hours and then treated with vehicle, FGFb, or FGFb and FGF inhibitor TKI-258. Total Ub conjugates (I), K48-linked conjugates (J), and K63-linked conjugates (K) were determined by Western blot, and their intensities were quantitated and normalized to that of β-actin and then to control in each group (L). Data were mean±SD of three independent experiments. (**: p<0.01, Student's t-test).
Cell lysates were prepared, and immunoprecipitation and immunoblotting were performed as described elsewhere (Deng et al., Mol. Cell, 61:614-624 (2016)). In brief, cells were lysed with NETN buffer (20 mM Tris-HCl, pH 8.0, 100 mM NaCl, 1 mM EDTA, 0.5% Nonidet P-40) containing 50 mM β-glycerophosphate, 10 mM NaF, and 1 mg/mL each of pepstatin A and aprotinin. Whole cell lysates were centrifuged at 12000 rpm for 15 minutes. Whole cell lysates were incubated with 2 of antibody and protein A or protein G Sepharose beads (Amersham Biosciences) for 2 hours or overnight at 4° C. The immunocomplexes were then washed with NETN buffer for three times and separated by SDS-PAGE. Immunoblotting was performed following standard procedures. […]

MDA-MB-468 cells [1] = test: Western blot of total, K48-linked and K63-linked Ub conjugates after EGF; format: cell-based, human
Protocol: FIG. 3. EGFR enhances proteasomal degradation and promotes K48-linked ubiquitin conjugates. (A). MDA-MB-468 cells were serum starved for 24 hours and labeled with ^35S-Met for 24 hours. […] The rate of protein degradation was shown as the fraction of radiolabelled protein remaining over time. Data were mean±SD of three independent experiments. (**: p<0.01, two-way ANOVA test). (B and C). MDA-MB-468 cells were treated as in (A), except that 20 nM bortezomib (B) or 10 μM chloroquine (C) was present in the chase media. Data were mean±SD of three independent experiments. (**: p<0.01, two-way ANOVA test). (D). […] Total Ub conjugates, K48-linked conjugates, and K63-linked conjugates were determined by Western blot, and their intensities were quantitated and normalized to that of β-actin and then to time 0 in each group. Data were mean±SD of three independent experiments. (**: p<0.01, Student's t-test). (E). […] Total Ub conjugates, K48-linked conjugates, and K63-linked conjugates were determined by Western blot, and their intensities were quantitated and normalized to that of β-actin and then to control in each group. Data were mean±SD of three independent experiments. […] Total Ub conjugates, K48-linked conjugates, and K63-linked conjugates were determined by Western blot, and their intensities were quantitated and normalized to that of β-actin and then to time 0 in each group. […]

[2] = test system: NIH-3T3 cells transformed by EGFR L858R; test: Cell proliferation and MTS assay; format: cell-based, mouse; details: EGFR L858R transformed cells compared to Ctrl cells; FIG. 14G
Protocol: FIG. 14. […] (A-D). NIH-3T3 cells were infected with virus expressing EGFR DM mutant. Cells were harvested at different times after infection. Total Ub conjugates (A), K48-linked conjugates (B), and K63-linked conjugates (C) were determined by Western blot, and their intensities were quantitated and normalized to that of β-actin. Data were mean±SD of three independent experiments. (**: p<0.01, Student's t-test). (E) NIH-3T3 cells were infected with virus expressing EGFR DM mutant. Cells were harvested at different times after infection. Cell lysates were blotted with an anti-pY59 antibody. (F). NIH-3T3 stably expressing empty vector (Ctrl) or EGFR L858R mutant were serum starved for 48 hours and were labeled with ^35S Met for 24 hours in the absence of serum. […] At different time points, cells were harvested, and radiolabeled protein remaining in the cell was measured. The rate of protein degradation was shown as the fraction of radiolabeled protein remaining over time. […]
90 μL of cells (5×10^5 cells/mL) were plated into each well of 96-well plates (Corning, Lowell, Mass.; MacLean et al., Bioinformatics, 26:966-968 (2010)) and were treated with 10 μL of bortezomib at the final concentrations of 0, 0.0457, 0.1372, 0.4115, 1.2346, 3.7037, 11.1111, 33.3333 and 100 nM. […] Plates were then read in a microplate reader at absorbance of OD 490 (Tecan AG, Switzerland).

MDA-MB-468 cells [3] = test: Pulse-chase measurement of protein degradation (35S-Met); format: cell-based, human
Protocol: FIG. 3. EGFR enhances proteasomal degradation and promotes K48-linked ubiquitin conjugates. (A). MDA-MB-468 cells were serum starved for 24 hours and labeled with ^35S-Met for 24 hours. […] The rate of protein degradation was shown as the fraction of radiolabelled protein remaining over time. Data were mean±SD of three independent experiments. (**: p<0.01, two-way ANOVA test). (B and C). MDA-MB-468 cells were treated as in (A), except that 20 nM bortezomib (B) or 10 μM chloroquine (C) was present in the chase media. Data were mean±SD of three independent experiments. (**: p<0.01, two-way ANOVA test). (D). […] Total Ub conjugates, K48-linked conjugates, and K63-linked conjugates were determined by Western blot, and their intensities were quantitated and normalized to that of β-actin and then to time 0 in each group. Data were mean±SD of three independent experiments. (**: p<0.01, Student's t-test). (E). […] Total Ub conjugates, K48-linked conjugates, and K63-linked conjugates were determined by Western blot, and their intensities were quantitated and normalized to that of β-actin and then to control in each group. Data were mean±SD of three independent experiments. (**: p<0.01, Student's t-test). (F). HEK293 cells were transfected with empty vector (Ctrl) or constitutively-active EGFR (encoding the T790M/L858R mutation) and treated with AG-1478. Total Ub conjugates, K48-linked conjugates, and K63-linked conjugates were determined by Western blot, and their intensities were quantitated and normalized to that of β-actin and then to time 0 in each group. Data were mean±SD of three independent experiments. (**: p<0.01, Student's t-test).
FIG. 4. EGF treatment raises the cellular content of Ub conjugates independent of EGFR ubiquitination and new protein synthesis. (A-D). […] Total Ub conjugates (A), K48-linked conjugates (B), and K63-linked conjugates were determined by Western Blot, and their intensities were quantitated and normalized to that of β-actin and then to control at time 0 in each group (D). Data were mean±SD of three independent experiments. (**: p<0.01, Student's t-test). (E). […] At different time points, cells were harvested, and radiolabeled protein remaining in the cell was measured. […] Cells were treated as illustrated in (A), and the radioactivity of remaining in cells was measured. […] The levels of Ub conjugates and β-actin were determined by Western blot (C) and quantitated (D). […]
To assess protein degradation, cells were starved for 30 minutes with methionine-free DMEM and pulse labelled for 16-24 hours with 0.5 mL of medium containing 0.1 mCi of ^35S-Met. […] After washing in cold PBS, cells were treated in chase medium for various times, and the remaining radioactivity in cells was measured as described elsewhere (Taelman et al., Cell, 143:1136-1148 (2010)). […]

MDA-MB-468 cells [4] = test: Immunoblot of Ub Y59 phosphorylation with anti-pY59 antibody; format: cell-based, human; details: 20 ng EGF, time dependent; FIG. 7D
Protocol: FIG. 7. EGFR phosphorylates ubiquitin. (A). An in vitro kinase assay was performed at 30° C. for 1 hour in the presence of EGFR and different tetra-Ub chain or free Ub. The gels were subjected to western blot with anti-phosphor-tyrosine antibody (upper panel) or Coomassie brilliant blue (CBB) staining (lower panel). (B). Lysates from EGF treated cells was trypsinized and subjected to liquid chromatography tandem mass spectrometry (LC-MS/MS) analysis. (C). […] Absolute quantification of […] and TLSD(pY)[…] from control of EGF treated cells were quantified by Parallel Reaction Monitoring. Data were mean±SD of three independent experiments. (**: p<0.01, Student's t-test). […] Cell lysates were blotted with the anti-pY59 antibody. (E). […] Cell lysates were blotted with antibodies against pY59 and β-actin. (F). WT Ub- and Ub Y59F-replacement cells were serum starved and induced with DOX for 72 hours to replace endogenous Ub with WT Ub or Ub Y59F. […] Cell lysates were blotted with antibodies against pY59 and β-actin.
Cell lysates were prepared, and immunoprecipitation and immunoblotting were performed as described elsewhere (Deng et al., Mol. Cell, 61:614-624 (2016)). In brief, cells were lysed with NETN buffer (20 mM Tris-HCl, pH 8.0, 100 mM NaCl, 1 mM EDTA, 0.5% Nonidet P-40) containing 50 mM β-glycerophosphate, 10 mM NaF, and 1 mg/mL each of pepstatin A and aprotinin. […]

Molecule: CC(O)C(=O)O.CN1CCN(c2ccc3nc(-c4c(N)c5c(F)cccc5[nH]c4=O)[nH]c3c2)CC1 [TKI-258, Dovitinib (TKI 258)]
- effect on increase in Ub conjugates induced by FGFb (NIH-3T3 cells; FGFb and TKI-258, FIGS. 6I-L): blocked

Molecule: N#CC(=C(/N)Sc1ccccc1N)/C(C#N)=C(\N)Sc1ccccc1N [U0126]
- effect on stimulation of Ub chain assembly by EGF (MDA-MB-468 cells [1]; pretreated 12 hours before EGF treatment, FIGS. 5B-E): did not affect

Molecule: CC(C)C[C@H](NC(=O)[C@H](Cc1ccccc1)NC(=O)c1cnccn1)B(O)O [bortezomib]
- bortezomib sensitivity [2]: much higher

Molecule: C[C@@H]1C[C@@H]([C@H](O)CC2CC(=O)NC(=O)C2)C(=O)[C@@H](C)C1 [cycloheximide]
- proteasomal proteolysis (MDA-MB-468 cells [3]; 100 μg/mL cycloheximide by itself, chloroquine in chase, FIG. 4G): reduced

Molecule: EGF: growth factor used to activate EGFR (NSDSECPLSHDGYCLHDGVCMYIEALDKYACNCVVGYIGERCQYRDLKWWELR; Epidermal growth factor; UniProt P01133 971-1023, looked up)
- rate of protein degradation (MDA-MB-468 cells [3]; EGF in chase medium, FIG. 3A): decrease
- lysosome-dependent degradation (MDA-MB-468 cells [3]; EGF, in the presence of 20 nM bortezomib, FIG. 3B): inhibited
- proteasome-mediated proteolysis (MDA-MB-468 cells [3]; EGF, in the presence of 10 μM chloroquine, FIG. 3C): increased dramatically
- cellular ubiquitin conjugates (MDA-MB-468 cells [1]; 20 ng EGF, time dependent, FIG. 3D): significantly higher
- phosphorylation of Ub (MDA-MB-468 cells [4]): dramatic increase

Molecule: FGFb: FGF basic, growth factor used to activate FGFR
- increase in total content of ubiquitinated proteins and K48-linked Ub conjugates (NIH-3T3 cells; 20 ng/mL FGFb for 20 minutes, FIGS. 6A-D): 50%
- treatment time to maximal increase in Ub conjugates (NIH-3T3 cells; 20 ng/mL FGFb, FIGS. 6A-D): 40 min
